{"source": "patent US20250009856A1", "about": "“METHODS FOR TREATING RESPIRATORY DISEASES” (MUCPharm Pty Ltd, priority 2021, published 2025)", "key": {"SPF rabbits": {"system": "SPF rabbits", "experiment": "Tolerability study of inhaled BromAc in rabbit model", "details": "Ac 20 mg inhaled; 48 h"}, "sheep lungs": {"system": "sheep lungs", "experiment": "Ventilated sheep lung model, endotracheal tube plugged with PMP mucin", "details": "nebulised twice over 60 minutes; saline showed slight drop"}, "[1]": {"experiment": "Pipette flow speed after aerosol treatment", "details": "AS; for Pipette flow speed (€), After: before 0.005 ± 0.001", "protocol": "Artificial sputum was prepared following protocol as detailed by […] et al (Kirchner, S., et al., Use of artificial sputum medium to test antibiotic efficacy against Pseudomonas aeruginosa in conditions more relevant to the cystic fibrosis lung. Journal of visualized experiments: JOVE, 2012 (64)). Briefly 250 mg of porcine mucin, 200 mg of sperm DNA, 295 mg of diethylene triamine pentaacetic acid (DPTA), 25 mg sodium chloride, 110 mg potassium chloride, 140 mg Tris base were mixed in a volume of 45 ml of distilled water and pH adjusted to 7.0 using Trisbase. The volume of the solution was then adjusted to 50 ml. Further dilutions were then carried out to adjust viscosity as desired. Using a 0.5 ml glass pipette fixed at an angle of 60°, 0.5 ml of sample at 25° C. (ambient room temperature) was sucked up the pipette and the time taken to empty 0.3 ml of the sample was timed in sec. Pipette flow time (€) was calculated as follows: € (ml/sec)=0.3 ml/Time to empty 0.3 ml (sec) Artificial sputa (AS) were prepared as detailed above, and 1.5 ml of artificial sputum was carefully emptied into an endotracheal tube (in triplicates). A volume of 6.0 ml of NAC 10 mg/ml in PBS (pH.7.0) in triplicate was aerosolised using a nebulizer and passed over the sputum samples in the endotracheal tubes kept at 37° C. in a water bath. Similarly, the experiments were repeated using NAC 20 mg/ml in PBS (pH.7.0). The controls only received PBS (pH 7.0). The aerosol delivery time to empty 6.0 ml for each treatment was 25 min. The dynamic viscosity of the sputa was measured before and after using the capillary tube method, whilst the pipette flow time was also measured as described earlier using a 0.5 ml glass pipette. Samples were equilibrated to 25° C. before measurement A similar treatment as in the experiment described above for NAC was carried out using Bromelain (125 and 250 μg/ml) in PBS (pH.7.0) along with control using PBS (pH.7.0). Both dynamic viscosity and pipette flow time was measured as outlined earlier for both artificial and PMP simulated sputa models. Using a combination of NAC (20 mg/ml) with either 125 or 250 μg/ml Bromelain in PBS (pH.7.0), a similar investigation was carried out as outlined earlier and measurements were made for both artificial and simulated sputa models. D=(TREATED)-(UNTREATED/(UNTREATED)×100."}, "[2]": {"experiment": "Dynamic viscosity (capillary tube) after aerosol treatment", "details": "AS; for Dynamic viscosity (γ), After: before 1.382 ± 0.013", "protocol": "Artificial sputum was prepared following protocol as detailed by […] et al (Kirchner, S., et al., Use of artificial sputum medium to test antibiotic efficacy against Pseudomonas aeruginosa in conditions more relevant to the cystic fibrosis lung. Journal of visualized experiments: JOVE, 2012 (64)). Briefly 250 mg of porcine mucin, 200 mg of sperm DNA, 295 mg of diethylene triamine pentaacetic acid (DPTA), 25 mg sodium chloride, 110 mg potassium chloride, 140 mg Tris base were mixed in a volume of 45 ml of distilled water and pH adjusted to 7.0 using Trisbase. The volume of the solution was then adjusted to 50 ml. Further dilutions were then carried out to adjust viscosity as desired. Dynamic viscosity (Y) of sputum was measured using the capillary tube method as outlined in […]. and G. Castellano, Determination of the kinematic viscosity by the liquid rise in a capillary tube. […] Ensino de Física, 2013. 35. Artificial sputa (AS) were prepared as detailed above, and 1.5 ml of artificial sputum was carefully emptied into an endotracheal tube (in triplicates). A volume of 6.0 ml of NAC 10 mg/ml in PBS (pH.7.0) in triplicate was aerosolised using a nebulizer and passed over the sputum samples in the endotracheal tubes kept at 37° C. in a water bath. Similarly, the experiments were repeated using NAC 20 mg/ml in PBS (pH.7.0). The controls only received PBS (pH 7.0). The aerosol delivery time to empty 6.0 ml for each treatment was 25 min. The dynamic viscosity of the sputa was measured before and after using the capillary tube method, whilst the pipette flow time was also measured as described earlier using a 0.5 ml glass pipette. Samples were equilibrated to 25° C. before measurement A similar treatment as in the experiment described above for NAC was carried out using Bromelain (125 and 250 μg/ml) in PBS (pH.7.0) along with control using PBS (pH.7.0). Both dynamic viscosity and pipette flow time was measured as outlined earlier for both artificial and PMP simulated sputa models. Using a combination of NAC (20 mg/ml) with either 125 or 250 μg/ml Bromelain in PBS (pH.7.0), a similar investigation was carried out as outlined earlier and measurements were made for both artificial and simulated sputa models. D=(TREATED)-(UNTREATED/(UNTREATED)×100."}, "[3]": {"experiment": "Dynamic viscosity after mixing with BromAc, DNase and combinations", "details": "agent without DNASE: BR(25 ug/ml), NAC(20 mg/ml), or BR(250 ug/ml) + NAC(20 ug/ml); 1 hour, 37 deg C; Cont(PBS) 2.36", "protocol": "Artificial sputa was prepared following methodology with ingredients as in earlier experiments. To 1.5 ml of artificial sputa in a vial was added 0.5 ml of reagent containing the required bromelain, NAC, DNase and their combinations. Control vials included 0.5 ml of PBS only. The mixture was vortex mixed and incubated in a shaker water bath at 37 deg C. At the end of 1 hour, the samples were retrieved, vortex mixed and equilibrated to ambient room temperature before measuring dynamic viscosity and pipette flow.\nDynamic viscosity was determined using the capillary tube method as in earlier experiments, whilst the pipette flow was evaluated using a 0.5 ml pipette inclined at 60 deg angle. The pipette flow was calculated as shown below."}}, "note": "Several values for one entry are separate records, joined by “and”; a condition that tells them apart may be missing. Equal values may be shown once."}
{"smiles": "CC(=O)N[C@@H](CS)C(=O)O", "note": "[NAC, N-acetylcysteine]", "values": [{"measurement": "Incident: Broncho-interstitial pneumonia, multifocal, mild", "setting": "SPF rabbits", "result": "1 out of 4"}, {"measurement": "Incident: Broncho-interstitial pneumonia, multifocal, mild, granulomatous", "setting": "SPF rabbits", "result": "3 out of 4"}, {"measurement": "Minute volume (MV) over 60 minutes", "setting": "sheep lungs", "result": "substantial rise in MV"}, {"measurement": "D (%), increase of pipette flow speed (€)", "setting": "[1]; aerosol NAC 10 mg/ml", "result": "28% and 28 ↑ %"}, {"measurement": "Pipette flow speed (€), After", "setting": "[1]; aerosol NAC 10 mg/ml", "result": "0.0064 ± 0.003", "unit": "mL/s"}, {"measurement": "D (%), increase of pipette flow speed (€)", "setting": "[1]; aerosol NAC 20 mg/ml", "result": "40% and 40 ↑ %"}, {"measurement": "Pipette flow speed (€), After", "setting": "[1]; aerosol NAC 20 mg/ml", "result": "0.007 ± 0.001", "unit": "mL/s"}, {"measurement": "D (%), decrease of dynamic viscosity (γ)", "setting": "[2]; aerosol NAC 10 mg/ml", "result": "6.0% and 6.0 ↓ %"}, {"measurement": "Dynamic viscosity (γ), After", "setting": "[2]; aerosol NAC 10 mg/ml, 6.0 ml over 25 min, 37° C.", "result": "1.300 ± 0.002", "unit": "cSt"}, {"measurement": "D (%), decrease of dynamic viscosity (γ)", "setting": "[2]; aerosol NAC 20 mg/ml", "result": "9.8% and 10% and 9.8 ↓ %"}, {"measurement": "Dynamic viscosity (γ), After", "setting": "[2]; aerosol NAC 20 mg/ml", "result": "1.247 ± 0.041", "unit": "cSt"}, {"measurement": "Dynamic viscosity (¥)", "setting": "[3]", "result": 1.640, "unit": "cSt"}]}
